The source of these data is PMC7073184, “The Major Cat Allergen Fel d 1 Binds Steroid and Fatty Acid Semiochemicals: A Combined In Silico and In Vitro Study” (International Journal of Molecular Sciences, 2020).

The conditions of data set [1]: ref PubChem and ChemSpider; cited from earlier work.
Data set [2] addresses T1, rFel d 1 (Felis catus, UniProt P30438+P30440). Description: 1-NPN binding to rFel d 1 (fluorescence titration). Set-up: species or system cat.
Description: To a 1-µM solution of the protein in 50 mM Tris-HCl, pH 7.4, aliquots of 1 mM solution of 1-NPN in methanol were added to final concentrations of 1–20 µM. (a) The representative emission curves experimentally obtained. […] (b) The saturation binding curve obtained from the average of three experiments.
N-Phenyl-1-naphthylamine (1-NPN) was used as a non-polar fluorescent probe in competitive binding experiments with the ligands (Sigma, France) to investigate binding efficiency of semiochemical analogs with pure rFel d 1 (INDOOR Biotechnologies, UK) [30]. The fluorescence experiments were performed on an FP-750 spectrofluorometer (JASCO, Japan) instrument at 25 °C in a right-angle configuration with a 1 cm light path fluorimeter quartz cuvette and 5-nm slits for both excitation and emission. The probe 1-NPN was excited at 337 nm and emission spectra were recorded between 380 and 450 nm, at 25 °C. The protein was dissolved in 50 mM Tris-HCl, pH 7.4, and ligands were added as 1 mM methanol solutions.
The binding of 1-NPN to rFel d 1 was tested at two protein concentrations (1 µM and 2 µM) by titrating the protein solution with aliquots of a 1-mM solution of 1-NPN in methanol to final concentrations of 1–20 µM. The bound ligand was evaluated from the values of fluorescence intensity assuming that the protein was 100% active, with a stoichiometry of 1:1 protein: ligand. […]
The target of data set [3] is T1, rFel d 1. In words: 1-NPN displacement screening (fluorescence). Type of data set: binding, cat. The note with it: 1 µM rFel d 1, 1 μM 1-NPN, 2 µM competitive ligand. The method, then: (§1) N-Phenyl-1-naphthylamine (1-NPN) was used as a non-polar fluorescent probe in competitive binding experiments with the ligands (Sigma, France) to investigate binding efficiency of semiochemical analogs with pure rFel d 1 (INDOOR Biotechnologies, UK). The fluorescence experiments were performed on an FP-750 spectrofluorometer (JASCO, Japan) instrument at 25 °C in a right-angle configuration with a 1 cm light path fluorimeter quartz cuvette and 5-nm slits for both excitation and emission. The probe 1-NPN was excited at 337 nm and emission spectra were recorded between 380 and 450 nm, at 25 °C. The protein was dissolved in 50 mM Tris-HCl, pH 7.4, and ligands were added as 1 mM methanol solutions.
(§2) Semiochemicals were first screened for their capabilities to bind rFel d 1 using 1 µM of rFel d 1, 1 μM of 1-NPN, and 2 µM of a competitive ligand. […] IC50 was graphically determined from the dose–response curve of each competitor ligand.

Data set [4] addresses T1, rFel d 1. Description: Competitive binding assay with the fluorescent probe 1-NPN. On the set-up: species or system cat. The note with it: for IC50: 1 µM rFel d 1, 2 μM 1-NPN, 25 °C, 50 mM Tris-HCl pH 7.4, competitor 0–16 μM; for Kd: calculated from IC50 with K1-NPN […]. The method, then: Figure 2 Competitive binding of selected fatty acids (a) and steroids (b) to rFel d 1. […] Fluorescence of probe-protein complexes in the absence of a competitor was normalized to 100%.
as §1, §2

Where two headings read alike, the source gives them in different places.

T1 sequence (P30440 18-109): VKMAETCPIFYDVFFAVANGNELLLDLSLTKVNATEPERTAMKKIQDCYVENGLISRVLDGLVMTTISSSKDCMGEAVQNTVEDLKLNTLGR
T1 sequence (P30438 23-92): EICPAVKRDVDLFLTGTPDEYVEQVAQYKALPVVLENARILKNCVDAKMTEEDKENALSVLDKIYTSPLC

Turning to `c1ccc(Nc2cccc3ccccc23)cc1` [1-NPN, N-phenyl-1-naphthylamine, reference compound], the “Topological Polar Surface Area” value in data set [1] was 12 Å². In addition, the Kd on rFel d 1 [2] (1 µM rFel d 1, 50 mM Tris-HCl pH 7.4, 1-NPN 1–20 µM, average of three experiments, read-out: dissociation constant of 1-NPN (GraphPad)) came out at 5.8 µM; at rFel d 1 [2] (1 µM rFel d 1, Scatchard plot, read-out: dissociation constant K1-NPN (Scatchard analysis)), 4.8 µM.
Regarding `C[C@]12CCC(=O)C=C1CC[C@@H]1[C@@H]2CC[C@]2(C)C(=O)CC[C@@H]12` [Androstenedione], in data set [1], the “Topological Polar Surface Area” value is 34.1 Å². Moreover, on rFel d 1 [3], the “1-NPN Displacement Screening” value is given as “Yes”.
Turning to `C[C@]12CC[C@@H](O)C[C@@H]1CC[C@@H]1[C@@H]2CC[C@]2(C)C=CC[C@@H]12` [Androstenol], the “Topological Polar Surface Area” value in data set [1] is reported as 20.2 Å². Moreover, the “1-NPN Displacement Screening” value on rFel d 1 [3] is reported as “No”.
As to `CC12C=CCC1C1CCC3CC(=O)CCC3(C)C1CC2` (centres unmarked) [Androstenone], at rFel d 1 [4] (read-out: IC50), the IC50 came out at 3.1 µM. For the same compound, the Kd at rFel d 1 [4] (read-out: Kd) was 2.4 µM. Moreover, in data set [1], the “Topological Polar Surface Area” value is given as 17.1 Å². Also, the “1-NPN Displacement Screening” value at rFel d 1 [3] is given as “Yes”.
As to `CCCCCCCCCC(=O)O` [Capric acid], the “1-NPN Displacement Screening” value on rFel d 1 [3] is on record as “No”.
As to `C[C@]12C[C@H](O)[C@H]3[C@@H](CCC4=CC(=O)CC[C@@]43C)[C@@H]1CC[C@@H]2C(=O)CO` [Corticosterone], the “Topological Polar Surface Area” value in data set [1] is reported as 74.6 Å². The “1-NPN Displacement Screening” value on rFel d 1 [3] is “No”.
Take `C[C@]12CC[C@H](O)CC1=CC[C@@H]1[C@@H]2CC[C@]2(C)C(=O)CC[C@@H]12` [Dehydroepiandrosterone (DHEA), Dehydroepiandrosterone]: in data set [1], the “Topological Polar Surface Area” value is reported as 37.3 Å². Also, on rFel d 1 [3], the “1-NPN Displacement Screening” value is reported as “Yes”.
For `C[C@]12CCC(=O)C[C@@H]1CC[C@@H]1[C@@H]2CC[C@]2(C)[C@@H](O)CC[C@@H]12` [Dihydrotestosterone], the “Topological Polar Surface Area” value in data set [1] is recorded as 37.3 Å². In addition, at rFel d 1 [3], the “1-NPN Displacement Screening” value was “No”.
Turning to `CCCCCCCCCCCC=O` [Dodecanal], the “Topological Polar Surface Area” value in data set [1] is on record as 17.1 Å². Moreover, at rFel d 1 [3], the “1-NPN Displacement Screening” value is “No”.
With `CCCCCCCCCCCCO` [Dodecanol], in data set [1], the “Topological Polar Surface Area” value was 20.2 Å². Besides, the “1-NPN Displacement Screening” value at rFel d 1 [3] is reported as “No”.
In the case of `C[C@]12CC[C@@H]3c4ccc(O)cc4CC[C@H]3[C@@H]1CC[C@@H]2O` [Estradiol], in data set [1], the “Topological Polar Surface Area” value is 40.5 Å². Further, the “1-NPN Displacement Screening” value at rFel d 1 [3] was “Yes”.
On to `C[C@]12CC[C@@H]3c4ccc(O)cc4CC[C@H]3[C@@H]1CCC2=O` [Estrone], for which, at rFel d 1 [3], the “1-NPN Displacement Screening” value was “Yes”.
As to `CCCCCCCCCCCC(=O)OCC` [Ethyl Laurate], the “Topological Polar Surface Area” value in data set [1] is listed as 26.3 Å². The “1-NPN Displacement Screening” value at rFel d 1 [3] is given as “No”.
As for `CCCCCCCCCCCCCCCC(N)=O` [Hexadecanamide], the “Topological Polar Surface Area” value in data set [1] is given as 43.1 Å².
On to `CC(=O)[C@@]1(O)CC[C@H]2[C@@H]3CCC4=CC(=O)CC[C@]4(C)[C@H]3CC[C@@]21C` [Hydroxyprogesterone], for which, in data set [1], the “Topological Polar Surface Area” value was 54.4 Å². Also, on rFel d 1 [3], the “1-NPN Displacement Screening” value is “Yes”.
`CC(C)C(=O)O` [Isobutyric acid]: the “Topological Polar Surface Area” value in data set [1] is 37.3 Å².
In the case of `CCCCCCCCCCCC(=O)O` [Lauric acid], on rFel d 1 [4], the IC50 turned out to be 3.3 µM and the Kd was 2.6 µM. In data set [1], the “Topological Polar Surface Area” value is recorded as 37.3 Å². The “1-NPN Displacement Screening” value at rFel d 1 [3] is reported as “Yes”.
Regarding `CCCCC/C=C\C/C=C\CCCCCCCC(=O)O` [Linoleic acid], on rFel d 1 [4], the IC50 turned out to be 10.1 µM and the Kd was 7.8 µM. Moreover, the “Topological Polar Surface Area” value in data set [1] is 37.3 Å². Besides, the “1-NPN Displacement Screening” value on rFel d 1 [3] is “Yes”.
Consider `CCCCCCCCCCCCCCCC(=O)OC` [Methyl Palmitate], for which the “Topological Polar Surface Area” value in data set [1] was 26.3 Å². The “1-NPN Displacement Screening” value on rFel d 1 [3] was “No”.
`CCCCCCCCCCCCCC(=O)O` [Myristic acid]: on rFel d 1 [4], the IC50 came out at 14.4 µM and the Kd was 11.1 µM. In addition, the “Topological Polar Surface Area” value in data set [1] is given as 37.3 Å². Moreover, the “1-NPN Displacement Screening” value on rFel d 1 [3] is “Yes”.
Consider `CCCCCCCCC(N)=O` [Nonanamide], for which the “Topological Polar Surface Area” value in data set [1] is recorded as 43.1 Å².
For `CCCCCCCCCCCCCCCCCC(N)=O` [Octadecanamide], the “Topological Polar Surface Area” value in data set [1] was 43.1 Å².
In the case of `CCCCCCCC/C=C\CCCCCCCC(=O)O` [Oleic acid], at rFel d 1 [4], the IC50 worked out at 10 µM and the Kd was 7.7 µM. Further, in data set [1], the “Topological Polar Surface Area” value is 37.3 Å². The “1-NPN Displacement Screening” value at rFel d 1 [3] is “Yes”.
For the compound `CCCCCCCCCCCCCCCC(=O)O` [Palmitic acid], at rFel d 1 [4] (competitive binding with 1-NPN, among the fatty acids), the “affinity to rFel d 1 in words” value is reported as “weakest ligand”. Moreover, the “Topological Polar Surface Area” value in data set [1] is on record as 37.3 Å². The “1-NPN Displacement Screening” value on rFel d 1 [3] is “Yes”.
On to `CC(=O)[C@H]1CC[C@H]2[C@@H]3CC=C4C[C@@H](O)CC[C@]4(C)[C@H]3CC[C@]12C` [Pregnenolone], for which, at rFel d 1 [4] (read-out: IC50), the IC50 turned out to be 13.1 µM. Moreover, at rFel d 1 [4] (read-out: Kd), the Kd is 10.1 µM. The “Topological Polar Surface Area” value in data set [1] is on record as 37.3 Å². Further, the “1-NPN Displacement Screening” value at rFel d 1 [3] was “Yes”.
Consider `CC(=O)[C@H]1CC[C@H]2[C@@H]3CCC4=CC(=O)CC[C@]4(C)[C@H]3CC[C@]12C` [Progesterone], for which, on rFel d 1 [4], the IC50 turned out to be 13.6 µM and the Kd is 10.5 µM. The “Topological Polar Surface Area” value in data set [1] is 34.1 Å². In addition, the “1-NPN Displacement Screening” value at rFel d 1 [3] was “Yes”.
Regarding `C[C@]12CC[C@H]3[C@@H](CCC4=CC(=O)CC[C@@]43C)[C@@H]1CC[C@@H]2O` [Testosterone], the “Topological Polar Surface Area” value in data set [1] was 37.3 Å². Further, at rFel d 1 [3], the “1-NPN Displacement Screening” value is on record as “Yes”.
In the case of `CCCCCCCCCCCCCCO` [Tetradecanol], the “Topological Polar Surface Area” value in data set [1] is on record as 20.2 Å². Moreover, the “1-NPN Displacement Screening” value on rFel d 1 [3] is listed as “No”.
In the case of Deoxycorticosterone, in data set [1], the “Topological Polar Surface Area” value was 54.4 Å². In addition, the “1-NPN Displacement Screening” value on rFel d 1 [3] is on record as “No”.
